These results are taken from patent US12458647B2, “Macrocyclic derivative and use thereof” (Guangzhou Joyo Pharmatech Co., Ltd., priority 2022, dated 2025).

Molecules are shown by their SMILES.

One data set relates to AsPC-1 cells. Nature of the data set: In vitro cell proliferation experiment (5 days), AsPC-1. Type of data set: cell-based. As to conditions: AsPC-1, 5 days; read-out: Inhibitory Activity IC50. As to the method: RPMI 1640 medium, DMEM, Ham's F12 medium, F12K medium, IMDM and penicillin/streptomycin antibiotics were purchased from Gibco, fetal bovine serum was purchased from Hyclone, Envision multilabel plate reader (PerkinElmer). […]
The test compound was diluted by 5-fold to 8 concentrations with a pipette, i.e., from 2 mM to 25.6 nM, and replicate wells were set up for the experiment. […] Another cell plate was prepared, and the signal value was read as the maximum value (the maximum value in the following equation) on the day of dosing for data analysis.
50 μL of cell viability chemiluminescent detection reagent was added to the cell plate and incubated at room temperature for 30 minutes to stabilize the luminescence signal. A multilabel plate reader was used for reading. […]

A short description of data set [1]: In vitro determination of whole blood to plasma concentration ratios, mouse. Type of data set: in vitro ADME. Particulars: CD-1 mouse whole blood, 1 μM, 37° C., 60 minutes. As to the method:
(1) Fresh mouse and human whole blood (n≥3 for number of individual animals and n≥2 for number of individual humans) were collected in blood collection tubes containing EDTAK2 anticoagulant. Whole blood samples had to be mixed well and stored at 2-8° C. or on wet ice before use. They were used within 36 hours of whole blood collection. Blank whole blood was centrifuged at 2,000×g for 15 minutes at room temperature to obtain blank plasma. The plasma status was checked and hemolyzed plasma samples could not be used.
(2) The hematocrit (the percentage content of red blood cells in whole blood) was determined by centrifugation of whole blood samples in microhematocrit centrifuge tubes.
(3) Diclofenac (all species), chlorthalidone (mouse) or chloroquine (human) were used as control compounds.
(4) ACN solution containing 2% DMSO with a final concentration of 1 μM of the test compound was added to blank whole blood samples, and three parallel treatments were performed. The final content of the organic phase in the system should not exceed 0.5% (the content of DMSO should not exceed 0.1%). A certain volume of the drug-containing whole blood sample was pipetted to the sample receiving plate (three replicates), an equal volume of blank plasma was added, and mixed well to obtain the T0 sample.
(5) The whole blood sample containing the test compound was incubated at 37° C. with shaking for 60 minutes.
(6) After the end of incubation, a certain volume of whole blood samples containing the drug was pipetted to the sample receiving plate (three replicates) as T60-whole blood samples.
(7) The remaining whole blood samples were centrifuged at 2,000×g for 15 minutes in a 37° C. centrifuge to obtain plasma samples. A certain volume of plasma was pipetted to the sample receiving plate (three replicates) as T60-plasma samples.
(8) During sample treatment, all samples were equilibrated with the matrix (i.e., blank whole blood or blank plasma of the same volume was added) and mixed well.
(9) 1-fold volume of pure water was added to the equilibrated sample, and then a certain volume of stop solution containing internal standard compound was added to terminate the reaction.
(10) The analytes and control compounds in the samples were determined by liquid chromatography-tandem mass spectrometry (LC-MS/MS) method. The ratio of analyte peak area to internal standard peak area was used to represent the concentration in the sample.
See Table 7 for the experimental results. Wherein KB/P represents the concentration ratio of the compound in whole blood and plasma. KE/P represents the concentration ratio of the compound in red blood cells and plasma, and recovery (%) represents the recovery of the compound in whole blood.

Data set [2] can be described thus: Pharmacokinetic study in rats. Type of data set: in vivo. Particulars: male SD rats; for AUC0-last / Cl / T1/2 / Vd / Cmax / TMax: whole blood. As to the method: To evaluate the pharmacokinetic behavior of the compounds of the present disclosure in male SD rats.
The compounds to be tested were dissolved in the vehicle (5% DMSO/10% solutol/85% water). Four male SD rats were divided into 2 groups, with 2 rats in each group. Group 1 rats were administered a single intravenous bolus injection (i.v.) of the compounds at a dose of 1 mg/kg. Group 2 rats were administered a single dose of the compounds by gavage (p.o.) at a dose of 10 mg/kg. Whole blood samples were collected at 0.083 (intravenous bolus group only), 0.25, 0.5, 1, 2, 4, 8 and 24 hours after dosing. The LC-MS/MS method was used to determine the concentration of the test compound in whole blood samples.

For the compound `CCn1c(-c2cc(N3CCN(C)CC3)cnc2C(C)OC)c2c3cc(ccc31)-c1csc(n1)CC(NC(=O)C1C(C)C1C)C(=O)N1NC(C(=O)OCC(C)(C)C2)C2CC1C2` (single isomer, unassigned) [Compound 6A], the IC50 (in general, the concentration at which inhibition is half-maximal) in the data set with AsPC-1 cells is 2.1 nM. Moreover, in data set [1], the “KB/P (concentration ratio of the compound in whole blood and plasma)” value stood at 5.3; the “KE/P (concentration ratio of the compound in red blood cells and plasma)” value is listed as 9.4; the “Recovery (%) of the compound in whole blood” value came out at 101.5%. In data set [2] (i.v. 1 mg/kg), the “AUC0-last” value came out at 4.125 µM·h; the “Cl” value turned out to be 4.6 mL/min/kg; the “T1/2” value is recorded as 5.7 h; the Vd (as a rule, a proportionality between amount in the body and measured concentration, not a real space) is reported as 1.9 L/kg. Also, in data set [2] (p.o. 10 mg/kg), the “F(%)” value is recorded as 38%, the “AUC0-last” value came to 15.213 µM·h, the peak level (Cmax) was 1620 nM and the “T1/2” value was determined as 6.1 h. The “TMax” value in data set [2] (p.o. 10 mg/kg) was 1.5 h.

In the case of `CCn1c(-c2cc(N3CCN(C)CC3)cnc2C(C)OC)c2c3cc(ccc31)-c1csc(n1)CC(NC(=O)C1CC1C)C(=O)N1NC(C(=O)OCC(C)(C)C2)C2CC1C2` (single isomer, unassigned) [Compound 7A], the IC50 in the data set on AsPC-1 cells stood at 6.6 nM. Further, in data set [1], the “KB/P (concentration ratio of the compound in whole blood and plasma)” value turned out to be 5.1; the “KE/P (concentration ratio of the compound in red blood cells and plasma)” value was 8.1; the “Recovery (%) of the compound in whole blood” value amounted to 97.3%. For the same compound, in data set [2] (i.v. 1 mg/kg), the “AUC0-last” value came out at 4.95 µM·h, the “Cl” value was 3.6 mL/min/kg, the “T1/2” value is on record as 8.5 h and the distribution volume (Vd) worked out at 2.5 L/kg. For the same compound, in data set [2] (p.o. 10 mg/kg), the “F(%)” value is given as 34.2%, the “AUC0-last” value came to 17.069 µM·h, the highest level (Cmax) was 1460 nM and the “T1/2” value was 7.3 h. In addition, the “TMax” value in data set [2] (p.o. 10 mg/kg) worked out at 4.0 h.
